Test results: PMC2965028 (Biochemistry, 2010)

How the values were obtained:
[1] = molecular target: N155H IN (Human immunodeficiency virus type 1 group M subtype B, UniProt P12497, N1302H); format: biochemical, HIV-1; details: IC50 N155H vs IC50 wt IN
[2] = molecular target: HIV-1 synaptic complex (SC) (Human immunodeficiency virus type 1 group M subtype B, UniProt P12497); test: Trapping of SC and H-SC on native agarose gels; format: biochemical; details: wt IN 20 nM, U5 DNA 0.5 nM, 2 h at 37°C, native agarose gel
[3] = molecular target: wt HIV-1 IN (Human immunodeficiency virus type 1 group M subtype B, UniProt P12497); details: read-out: IC50, inhibition with two blunt-ended DNA molecules in SC; cited from earlier work
[4] = tested on: N155H IN-DNA complex; details: cited from earlier work
[5] = tested on: wt IN-DNA complex; details: cited from earlier work
[6] = molecular target: Q148H IN (Human immunodeficiency virus type 1 group M subtype B, UniProt P12497, Q1295H); format: biochemical, HIV-1; details: IC50 Q148H vs IC50 wt IN
[7] = tested on: HIV-1; details: in 50% normal human serum; cited from earlier work

| Structure (SMILES) | Inhibitor concentration at which trapped SC and H-SC were first detected [2] [nM] | Dissociation half-life from N155H IN-DNA complex [4] [h] | Dissociation half-life from wt IN-DNA complex [5] [h] | also measured |
| --- | --- | --- | --- | --- |
| O=C(O)C(=O)C=C(O)c1cn(Cc2ccc(F)cc2)c2cc(N3CCCC3)ccc2c1=O [RDS 2197] | ≥ 250 | – | – | Fold change in IC50 for FS products, N155H IN relative to wt IN (resistance) [1]: 1.3 fold |
| O=C(NCc1ccc(F)cc1)c1nc(N2CCCCS2(=O)=O)c2cccnc2c1O [L-870,810] | – | – | – | IC50 [3]: ~0.032 µM |
| Cc1nnc(C(=O)NC(C)(C)c2nc(C(=O)NCc3ccc(F)cc3)c(O)c(=O)n2C)o1 [RAL, raltegravir] | – | ~0.7 | 7.3 | – |
| O=C(O)C(=O)/C=C(\O)c1ccc2c(c1)c(=O)c(/C(O)=C/C(=O)C(=O)O)cn2Cc1ccc(F)cc1 [RDS 1997] | ≥ 50 | – | – | – |
| CCN1C[C@H](C)n2c(c(O)c3c(=O)n(Cc4ccc(F)c(Cl)c4)nc(C(=O)NC)c32)C1=O [MK-2048] | ≥ 10 | ~4 | ~32 | Fold change in IC50 for FS products, Q148H IN relative to wt IN (resistance) [6]: 2 fold; Antiviral activity IC95 [7]: 0.041 µM |
